Converted amounts (≈) assume the structure as drawn. The source made the active and inactive calls. The calls are words filed in the database; no cut-off is given here.
Experiments:
Caspase-3 (Homo sapiens) [1] = molecular target: T1, Caspase-3 (Homo sapiens) (UniProt P42574); assay: Inhibition of CPP32 peptidase activity at 50 nM
T1 sequence (whole entry): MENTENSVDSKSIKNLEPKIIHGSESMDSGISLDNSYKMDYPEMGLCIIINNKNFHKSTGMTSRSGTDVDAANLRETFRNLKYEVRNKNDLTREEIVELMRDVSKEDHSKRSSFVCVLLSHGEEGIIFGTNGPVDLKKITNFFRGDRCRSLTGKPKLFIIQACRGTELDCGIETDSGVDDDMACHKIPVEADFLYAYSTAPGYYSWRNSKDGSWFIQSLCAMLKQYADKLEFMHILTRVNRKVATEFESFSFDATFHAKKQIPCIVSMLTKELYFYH

Bos taurus = organism: Bos taurus; assay: Inhibition of bovine brain calcineurin phosphatase activity at 5 ug/mL
Caspase-3 (Homo sapiens) [2] = molecular target: T1, Caspase-3 (Homo sapiens); assay: Inhibition of CPP32 peptidase activity at 5 ug/mL
P388 = assay: Cytotoxicity against mouse P388 cells; format: functional, cell-based
A549 = assay: Cytotoxicity against human A549 cells; format: functional, cell-based
[3] = Inhibition of bovine brain calcineurin phosphatase activity; set-up: species or system Bos taurus

For `CC(C)[C@H](NC(=O)[C@H](CCC(=O)O)NC(=O)[C@@H](N)CC(=O)O)C(=O)N[C@H](C=O)CC(=O)O`, which inhibition (Caspase-3 (Homo sapiens) [1]) is on record?
Its inhibition is 90%.

Which results are given for `O=C1C(Br)=CC2(C=C1Br)CCNC1=C2C2=NCCc3c[nH]c(c32)C1=O`?
Activity (Bos taurus): inactive; Activity (Caspase-3 (Homo sapiens) [2]): inactive

With `Cn1cc2c3c1C(=O)C1=C(C3=NCC2)C2(C=C(Br)C(=O)C(Br)=C2)CCN1` [DISCORHABDIN] as the compound, how does the IC50 (P388) read?
Its IC50 is 0.025 µg/mL (≈ 0.0524 µM).

What about the IC50 (A549) of the same compound?
The IC50 was 0.41 µg/mL (≈ 0.859 µM).

What about the IC50 [3] of the same compound?
Its IC50 is 0.55 µg/mL (≈ 1.15 µM).
